Read-outs that look alike come from different tables or passages of the source. One block for each molecule: values may come before it.
Experiments:
HT29 cell line [1] = experiment: MTT assay cytotoxicity of PILs; conditions: for IC50: MTT, 24 h exposure
Experimental: (§1) Pastor Institute of Iran generously provided the human colon adenocarcinoma cell line HT29. The cell lines were cultured in RPMI’s medium supplemented with 10% fetal bovine serum (FBS) and Culture medium containing FBS. The cell cultures were incubated at 37 °C in a humidified environment of 5% carbon dioxide—CO2.
(§2) The colorimetric MTT assay was used to assess the cytotoxic activity of PILs (Twentyman and Luscombe 1987). HT29 cells were seeded in 96-well plates and allowed to conform for the first step. The cells were then incubated for 24 h at 37 °C in 5% CO2 in a total of six concentrations (3–150 µg mL^−1) of the studied compounds diluted in RPMI medium (previously sterilized with a 0.22 m syringe filter). After 24 h of exposure, each well was filled with 50 µL of MTT solution (3 (4,5-dimethylthiazol-2-yl)-2,5-diphenyltetrazolium bromide (MTT) from Sigma-Aldrich) (2 mg. mL in PBS, pH 7.2). To dissolve the formazan crystals, the medium was substituted with 150 µL of dimethyl sulfoxide (DMSO) after 4 h of incubation.
(§3) The plate was shaking for around 1 h while being held out of direct sunlight. Cell viability was measured through the optical density of reduced MTT at 570–630 nm using a microplate reader (Synergy HT from BioTeK Instruments Inc., Winooski, VT, USA). The percentage of viable cells was calculated as the ratio between the absorbance of treated and control cells. Similarly, IC50 was estimated using a non-linear regression, logistic equation to determine the chemical concentration that causes a 50% reduction in cell viability [27].

HT29 cell line [2] = test system: HT29 cell line
Experimental: as §1, §2, §3

[3] = Apparent thermodynamic functions of IMC dissolution (van't Hoff and Gibbs equations); type: physicochemical
Source text: The van’t Hoff and Gibbs equations were employed for calculating the Thm = 305.55 K (the mean harmonic temperature), which was derived by considering into calculate temperatures (298.15 to 313.15 K). The thermodynamic parameters of dissolution have been evaluated by employing the apparent thermodynamic functions. […] On the other hand, the van’t Hoff plot, which is a plot of lnx1 versus 1/T-1/Thm , can be utilized to figure out:14 ΔHsoln∘=-R∂lnx1/∂1/T-1/ThmP, 15 ΔGsoln∘=-RThm×intercept.
In this manner, the values of ΔHsoln∘ and ΔGsoln∘ have been evaluated utilizing the slope and intercept of Eqs. 14 and 15. Furthermore, the following equation [47, 48] was applied to evaluate the standard molar entropy of dissolution, ΔSsoln∘ [49]:16 ΔSsoln∘=ΔHsoln∘-ΔGsoln∘/Thm.
Finally, in the IMC dissolution process, Eqs.

[4] = XRD of residual solids from solubility measurement; type: physicochemical; conditions: residual solids from saturated aqueous PIL solutions vs raw IMC
Source text: The XRD diffractograms of raw IMC crystals together with residuals crystals sampled from solubility measurement are depicted in Figure S4. (supporting information). It should be noted that quantitative analysis of phases in samples with preferential orientation or texture is not possible using traditional methods such as direct comparison. […] First, the stability of IMC in the presence of PILs was investigated. The analysis of the bottom phase(s) after the solubility experiments have been presented. There are different type of factors affecting the peak intensity of XRD. These type of factors are listed as: • The nature of the sample under test (single-phase or multiphase of the sample). • Powder samples have less peak intensity than bulk samples. (Due to the effect of absorption factor). • Grain size: the larger the grain size, the higher the peak intensity. For example, considering samples with the same chemical composition, which have been annealed at different times of heat treatment, a sample will have a higher peak intensity with a longer heat treatment time (longer annealing time = larger grain size). It should be noted that the smaller the grain size, the higher the […] is the amorphous part of the material, and as a result the background scatter in the diffraction pattern will increase and the peak intensity would decrease.

[5] = type: physicochemical
Experimental: Before obtaining dissolution data, a calibration curve for Indomethacin (IMC) was established (Fig. 2). A double-beam T80 UV-vis spectrometer (Japan) and a mixture of ethanol and distilled deionized water were employed to dissolve a specific amount of IMC to generate the calibration curve. Numerous methods were utilized to determine the experimental solubility data, encompassing the shake-flask method. […] Then, the excess amounts of IMC were added to glass vials holding a particular quantity of water and PILs, which were stirred and kept for 3 days in a water bath thermostat until equilibrium was reached. The temperature was adjusted with a precision of 0.01 K using an ED water bath thermostat (Julabo Co., Germany). After 3 days, the liquid and solid phases were separated employing a Hettich D-7200 centrifuge. At the next step, the liquid phase was appropriately diluted with an ethanol + water solution after filtering the saturated solutions through a 0.22 μm PTFE filter. The concentration of IMC in the solutions was measured by utilizing the calibration curve and a T80 UV-vis spectrometer (Japan). The mole fraction of IMC (x1) in the aqueous solutions containing PILs was determined, for the IMC + water, IMC + water combination, and IMC + PILs systems using the Eq. 1 [25, 26]:1 x1=[…]3, where Wi and Mi, respectively, indicate the weight fractions and molar mass weight fractions of each system component (i).

[6] = cited from earlier work
[7] = aq. MEAA, w3 = 0.0000, Thm = 305.55 K
[8] = aq. MEAA, w3 = 0.0200, Thm = 305.55 K
[9] = aq. MEAA, w3 = 0.0500, Thm = 305.55 K
[10] = aq. MEAA, w3 = 0.0700, Thm = 305.55 K
[11] = aq. MEAA, w3 = 0.1000, Thm = 305.55 K
[12] = aq. MEAA, w3 = 0.1500, Thm = 305.55 K
[13] = aq. MEAA, w3 = 0.2000, Thm = 305.55 K
[14] = aq. MEAL, w3 = 0.0000, Thm = 305.55 K
[15] = aq. MEAL, w3 = 0.0200, Thm = 305.55 K
[16] = aq. MEAL, w3 = 0.0500, Thm = 305.55 K
[17] = aq. MEAL, w3 = 0.0700, Thm = 305.55 K
[18] = aq. MEAL, w3 = 0.1000, Thm = 305.55 K
[19] = aq. MEAL, w3 = 0.1500, Thm = 305.55 K
[20] = aq. MEAL, w3 = 0.2000, Thm = 305.55 K
[21] = aq. MEAP, w3 = 0.0000, Thm = 305.55 K
[22] = aq. MEAP, w3 = 0.0200, Thm = 305.55 K
[23] = aq. MEAP, w3 = 0.0500, Thm = 305.55 K
[24] = aq. MEAP, w3 = 0.0700, Thm = 305.55 K
[25] = aq. MEAP, w3 = 0.1000, Thm = 305.55 K
[26] = aq. MEAP, w3 = 0.1500, Thm = 305.55 K
[27] = aq. MEAP, w3 = 0.2000, Thm = 305.55 K

SMILES: CC(=O)O.NCCO [MEAA, 2-Hydroxyethylammonium acetate]
IC50 (HT29 cell line [1]): 26.40 ± 0.006 µg/mL
cytotoxic effect category (HT29 cell line [2]): moderate

ΔGsoln∘ [3, 7]: 8.265 kcal/mol
ΔHsoln∘ [3, 7]: 6.052 kcal/mol
ξH [3, 7]: 73.23%
ξTS [3, 7]: 26.77%
ΔGsoln∘ [3, 8]: 6.804 kcal/mol
ΔHsoln∘ [3, 8]: 4.345 kcal/mol
ξH [3, 8]: 63.86%
ξTS [3, 8]: 36.14%
ΔGsoln∘ [3, 9]: 6.671 kcal/mol
ΔHsoln∘ [3, 9]: 3.662 kcal/mol
ξH [3, 9]: 54.90%
ξTS [3, 9]: 45.10%
ΔGsoln∘ [3, 10]: 6.604 kcal/mol
ΔHsoln∘ [3, 10]: 2.13 kcal/mol
ξH [3, 10]: 32.21%
ξTS [3, 10]: 67.79%
ΔGsoln∘ [3, 11]: 6.561 kcal/mol
ΔHsoln∘ [3, 11]: 2.55 kcal/mol
ξH [3, 11]: 38.86%
ξTS [3, 11]: 61.14%
ΔGsoln∘ [3, 12]: 6.422 kcal/mol
ΔHsoln∘ [3, 12]: 4.572 kcal/mol
ξH [3, 12]: 71.17%
ξTS [3, 12]: 28.83%
ΔGsoln∘ [3, 13]: 6.255 kcal/mol
ΔHsoln∘ [3, 13]: 2.536 kcal/mol
ξH [3, 13]: 40.54%
ξTS [3, 13]: 59.46%
ΔGsoln∘ [3, 14]: 8.265 kcal/mol
ΔHsoln∘ [3, 14]: 6.052 kcal/mol
ξH [3, 14]: 73.23%
ξTS [3, 14]: 26.77%
ΔGsoln∘ [3, 15]: 6.028 kcal/mol
ΔHsoln∘ [3, 15]: 5.282 kcal/mol
ξH [3, 15]: 87.61%
ξTS [3, 15]: 12.39%
TMΔSsoln∘ [3, 16]: 0.598 kcal/mol
ΔGsoln∘ [3, 16]: 5.746 kcal/mol
ΔHsoln∘ [3, 16]: 6.343 kcal/mol
ξH [3, 16]: 91.39%
ξTS [3, 16]: 8.61%
TMΔSsoln∘ [3, 17]: 2.457 kcal/mol
ΔGsoln∘ [3, 17]: 5.633 kcal/mol
ΔHsoln∘ [3, 17]: 8.09 kcal/mol
ξH [3, 17]: 76.70%
ξTS [3, 17]: 23.30%
TMΔSsoln∘ [3, 18]: 0.911 kcal/mol
ΔGsoln∘ [3, 18]: 5.471 kcal/mol
ΔHsoln∘ [3, 18]: 6.381 kcal/mol
ξH [3, 18]: 87.50%
ξTS [3, 18]: 12.50%
TMΔSsoln∘ [3, 19]: 2 kcal/mol
ΔGsoln∘ [3, 19]: 5.208 kcal/mol
ΔHsoln∘ [3, 19]: 7.206 kcal/mol
ξH [3, 19]: 78.28%
ξTS [3, 19]: 21.72%
TMΔSsoln∘ [3, 20]: 0.614 kcal/mol
ΔGsoln∘ [3, 20]: 5.036 kcal/mol
ΔHsoln∘ [3, 20]: 5.652 kcal/mol
ξH [3, 20]: 90.18%
ξTS [3, 20]: 9.82%
ΔGsoln∘ [3, 21]: 8.265 kcal/mol
ΔHsoln∘ [3, 21]: 6.052 kcal/mol
ξH [3, 21]: 73.23%
ξTS [3, 21]: 26.77%
TMΔSsoln∘ [3, 22]: 0.75 kcal/mol
ΔGsoln∘ [3, 22]: 6.965 kcal/mol
ΔHsoln∘ [3, 22]: 7.715 kcal/mol
ξH [3, 22]: 91.14%
ξTS [3, 22]: 8.86%
TMΔSsoln∘ [3, 23]: 1.91 kcal/mol
ΔGsoln∘ [3, 23]: 6.74 kcal/mol
ΔHsoln∘ [3, 23]: 8.65 kcal/mol
ξH [3, 23]: 81.92%
ξTS [3, 23]: 18.08%
TMΔSsoln∘ [3, 24]: 7.481 kcal/mol
ΔGsoln∘ [3, 24]: 6.616 kcal/mol
ΔHsoln∘ [3, 24]: 14.1 kcal/mol
ξH [3, 24]: 65.33%
ξTS [3, 24]: 34.67%
TMΔSsoln∘ [3, 25]: 11.89 kcal/mol
ΔGsoln∘ [3, 25]: 6.456 kcal/mol
ΔHsoln∘ [3, 25]: 18.34 kcal/mol
ξH [3, 25]: 60.68%
ξTS [3, 25]: 39.32%
TMΔSsoln∘ [3, 26]: 14.01 kcal/mol
ΔGsoln∘ [3, 26]: 6.066 kcal/mol
ΔHsoln∘ [3, 26]: 20.07 kcal/mol
ξH [3, 26]: 58.90%
ξTS [3, 26]: 41.10%
TMΔSsoln∘ [3, 27]: 9.183 kcal/mol
ΔGsoln∘ [3, 27]: 5.786 kcal/mol
ΔHsoln∘ [3, 27]: 14.97 kcal/mol
ξH [3, 27]: 61.98%
ξTS [3, 27]: 38.02%
solid phase stability in solubility measurements (XRD) [4]: no phase transformation
IMC solubility in MEAL PIL relative to water [5]: more than 200 times
increase of IMC solubility in PILs compared to pure water [5]: ~200 times
solubility (mole fraction) [5]: 20.71 × 10^−5 mole fraction
SMILES: COc1ccc2c(c1)c(CC(=O)O)c(C)n2C(=O)c1ccc(Cl)cc1 [Indomethacin]
solubility (mole fraction) ([6]; ethanol/water (wETOH = 0.2), 298.15 K, ref Peña et al.): 1.13 × 10^−5 mole fraction
solubility (mole fraction) ([6]; propylene glycol/water, 0.4 weight fraction propylene glycol, 303.15 K, ref Holguín et al. 52): 7.61 × 10^–6 mole fraction

SMILES: CC(O)C(=O)O.NCCO (centres unmarked) [MEAL, 2-Hydroxyethylammonium lactate]
IC50 (HT29 cell line [1]): 79.23 ± 0.001 µg/mL
cytotoxic effect category (HT29 cell line [2]): moderate

SMILES: CCC(=O)O.NCCO [MEAP, 2-Hydroxyethylammonium propionate]
cytotoxic effect category (HT29 cell line [1]): moderate
IC50 (HT29 cell line [1]): 67.19 ± 0.049 µg/mL

— paper PMC11145891, “Effect of 2-hydroxyethylammonium carboxylate protic ionic liquids on the solubility and cytotoxicity of indomethacin” (BMC Chemistry, 2024)
